Test results published in US9745345B2, “Anti-tumor polypeptides and method for preparing anti-tumor drugs comprisng the same” (priority 2013, dated 2017).
Square brackets hold non-standard residues; d marks the D form. Ends that are not written are not given here. pS = N[C@@H](COP(=O)(O)O)C(=O)O; Ahx = NCCCCCC(=O)O

Legend:
[1] = system: Human melanoma A375 cells; assay: Human melanoma A375 subcutaneous xenograft in BALB/c nude mice, intratumoral injection of polypeptides; type: in vivo
Description: Human melanoma A375 cells in the logarithmic phase of growth were cultured under sterile conditions to prepare a 5×10^6/200 μL cell suspension, and 200 μL cell suspension was separately injected into BALB/c nude mice subcutaneously. An electronic digital vernier caliper was used to measure the long-axis and short-axis diameters of the transplanted tumors, and the formula: Tumor Volume (TV)=½×Long-axis Diameter×Short-axis Diameter^2 was used to calculate the volume of the tumors. The mice were randomly grouped when the tumor volume reach about 100 mm^3.
Polypeptides JWA-1, JWA-2, JWA-3, and an equivalent peptide blend (Pep) of the three polypeptides were injected into the tumors of the various groups of mice respectively, and the doses used were 25 mg/kg and 10 mg/kg, respectively; the negative control group was injected with an equal amount of sterile phosphate-buffered saline (PBS). The polypeptide injection groups and the control group were administered on alternate days (48 hrs interval) by injection for 5 times; and the body weight of the mice and their tumor diameters were measured at each administration. After completion of the experiment the mice were sacrificed after anesthesia, tumors were separated from the bodies and their weight were measured.
In this example, the method for dorsal subcutaneous tumor bearing of BALB/c nude mice by inoculation of A375 cells is the same as Example 2.
The aforementioned BALB/c nude mice inoculated with human melanoma A375 cells by intratumoral injection were separately treated using polypeptide JWA-1 of low dose (5 mg/kg), medium dose (10 mg/kg) and high dose (15 mg/kg); at the same time, a sterile PBS negative control group and a 10 mg/kg non-pep injection group (referred to simply as “non-pep group”, the polypeptide sequence used was SEQ ID NO: 14; […]-EEMQR, the N-terminus thereof being acetylated and the C-terminus thereof amidated) were established. The establishment of the non-pep group was for observing whether JWA polypeptides have any specific anti-tumor effect.
To verify the impact of phosphorylation of S in polypeptide JWA-1 on the anti-tumor effect thereof, a non-phosphorylated polypeptide JWA-7 injection group (10 mg/kg) was added in the aforementioned experiment.
(§1) The various groups were administered by intratumoral injection on alternate days for 5 times consecutively; and the body weight of the mice and their tumor diameters were measured at each administration. After completion of the experiment the mice were sacrificed after anesthesia, tumors were separated from the bodies and the tumor weights were measured.
The BALB/c nude mice inoculated with human melanoma A375 cells were separately treated using 10 mg/kg polypeptides JWA-1, JWA-4, JWA-5, and JWA-6; at the same time, a 10 mg/kg non-pep injection group (referred to simply as “non-pep group”, the polypeptide sequence used was the same as Example 3) was established.
The mice with transplanted tumors in this example were the same as Example 2, and the experimental method used therein was also the same as Example 2. The various polypeptides were administered by intratumoral injection at a dose of 10 mg/kg, and a non-pep injection group (referred to simply as “non-pep group”, the polypeptide sequence used was the same as Example 3) was established.

[2] = system: Human Melanoma A375 Cells; assay: Cell proliferation with CCK8 reagent, A375 cells; type: cell-based; details: 0-50 μM, 24, 48 and 72 hrs, in comparison with the control group
Description: (§2) B16F10 or A375 cells in the logarithmic phase of growth were trypsinized and seeded in a 96-well plate (5×10^3 cells/well), and were treated with different doses (0 μM, 5 μM, 10 μM, 25 μM, 50 μM) of polypeptide JWA-1, JWA-5, JWA-6 or non-pep (the polypeptide sequence used was the same as Example 3) for 24 hrs, 48 hrs and 72 hrs, respectively. The original culture medium was removed from the 96 wells at the indicated time and cell proliferation was determined with CCK8 reagent according to the manufacturer's instructions. Four duplicate samples were taken from each group and the experiments were repeated for three times.

[3] = system: Mouse Melanoma B16F10 Cells; assay: Cell proliferation with CCK8 reagent, B16F10 cells; type: cell-based; details: 0-50 μM, 24, 48 and 72 hrs, in comparison with the control group
Description: as §2

A375 cells [4] = assay: Western Blot of apoptosis-related molecules (PARP-1, caspase-3) in A375 cells; type: cell-based, human; details: A375, 24 hrs
Description: (§3) The combined effect of ATO and polypeptide JWA-6 on the self-destruction of protein expression was also determined A375 cells in the logarithmic phase of growth were conventionally digested and 5×10^5 cells were inoculated evenly in a 60 mm cell culture dish, and different doses of ATO were used to individually treat the cells for 24 hrs, or different doses of ATO in combination with different doses of polypeptide JWA-6 were used to treat the cells for 24 hrs, after which 0.18 mL of RIPA lysis buffer containing 0.5% phenylmethanesulfonyl fluoride (PMSF) was added to extract protein. After centrifugation at 12000×g for 15 minutes, the supernatant was taken, protein concentration was examined. Based on the molecular weight measured, a polyacrylamide gel having a suitable concentration was chosen for protein electrophoresis where each well was added with […] of protein, and the conditions for electrolysis were 60 V, 30 minutes and 90 V, 1-1.5 hrs. After completion of the electrolysis, semi-dry transfer was performed to transfer the protein from the gel onto a polyvinylidene difluoride (PVDF) membrane. After completion of the transfer, the membrane was blocked with 5% skim milk at room temperature for 1-2 hrs. Then, the membrane was washed 3 times (each lasting 5 minutes) using Tris-buffered Saline with Tween (TBST) containing 0.1% Tween-20, and incubation of the corresponding antibody was performed overnight at 4° C. On the next day, membrane was washed 3 times (each lasting 5 minutes) using Tris-buffered Saline with Tween (TBST) containing 0.1% Tween-20; incubation of secondary antibody was performed at room temperature for 1-2 hrs; and again membrane was washed 8 times (each lasting 5 minutes) using Tris-buffered Saline with Tween (TBST) containing 0.1% Tween-20. The membrane was added with enhanced chemiluminescence (ECL) liquid and exposed.
Polypeptide CPP-JWA-6 at a dose of 20 μM, 50 μM was applied individually and applied in combination with ATO (5 μM) on A375 cells (as shown in FIG. 40) and SGC7901 cells (as shown in FIG. 41) for 24 hrs before protein was extracted, and the Western Blot method of Example 7 was used to examine the changes in apoptosis-related molecules.

SGC7901 cells = assay: Western Blot of PARP-1 in SGC7901 cells; type: cell-based; details: 24 hrs
Description: as §3, with “exposed. […]” for “exposed.”

[5] = system: human melanoma A375 cells; assay: Human melanoma A375 subcutaneous xenograft in NOD/SCID mice, intraperitoneal injection of polypeptides; type: in vivo; details: Example 5, alternate days, 5 times
Text: The polypeptide designed and synthesized in this example was JWA-6+RGD whose sequence was SEQ ID NO: 7, i.e. 6-aminocaproic acid-FPGSDRF-GGGG-RGD, wherein amino acid S was phosphorylated. In addition, the N-terminus of the polypeptide sequence was acetylated and the C-terminus thereof was amidated during synthesis to prevent rapid degradation of the polypeptide. In this example, non-obese diabetic/severe combined immunodeficiency (NOD/SCID) mice were chosen for tumor-bearing model and the method for dorsal subcutaneous tumor bearing by inoculation of human melanoma A375 cells is the same as Example 2. The mice were randomly divided into four treatment groups after the tumors grew to a volume of about 100 mm^3. […]
as §1, with “Then, 50 mg/kg polypeptide JWA-6, 10 mg/kg polypeptide JWA-6+RGD, 50 mg/kg polypeptide JWA-6+RGD, and 50 mg/kg non-pep (the polypeptide sequence used was the same as Example 3) were injected intraperitoneally. The” for “The”, “with” for “by intratumoral”, “weights” for “weights were”
Thereafter, the tumor bearing mice were obtained using the foregoing method of this example and divided into seven injection groups which were intraperitoneally injected with polypeptides JWA-6+RGD, JWA-6+RGD0, JWA-6+RGD1, JWA-6+RGD3, JWA-6+RGD7, JWA-6+RGD10, and non-pep (the polypeptide sequence used was the same as Example 3) at a dose of 50 mg/kg. The various groups were administered by intraperitoneal injection on alternate days for 5 times consecutively; and the body weight of the mice and their tumor diameters were measured at each administration. The day of first administration was taken as the first day, and the experiment was stopped on the twelfth day when the mice were sacrificed after anesthesia, and tumors were separated from the bodies and the tumor weights were measured.

A375 cells [6] = assay: Cytoactivity of A375 cells treated with ATO alone or with polypeptides in combination with ATO; type: cell-based, human; details: polypeptide 50-500 μM in combination with ATO 0.5-5 μM, 24 and 48 hrs
Description: Firstly, the dose and time for treatment of A375 cells with ATO were determined. A375 cells in the logarithmic phase of growth were conventionally digested and seeded in a 96-well plate (5×10^3 cells/well), and different doses (5 μM, 10 μM, 25 μM, 50 μM) of ATO were used to treat the cells for 24 hrs and 48 hrs after cell attachment. It was discovered that the activity of A375 cells was reduced by 40% after 24 hrs of treatment with 5 μM ATO (as shown in FIG. 24), and that the cell growth inhibition rate was approximately 100% after 48 hrs of treatment with different doses of ATO (as shown in FIG. 25). Therefore, ATO with a concentration smaller than or equal to 5 μM was chosen to treat the cells for 24 hrs for subsequent reference of dose and time for combined medication.

[7] = Example 4, 10 mg/kg intratumoral, alternate days, 5 times, compared among polypeptides
[8] = 20, 50 μM polypeptide combined with ATO 5 μM, in comparison with ATO alone
[9] = polypeptide alone at a dose not exceeding 50 μM
[10] = Example 3, 10 mg/kg intratumoral, alternate days, 5 times, 10 mg/kg

6-aminocaproic acid-PGSDR ([Ahx]PG[pS]DR) [JWA-5]
tumor inhibition effect [1, 7]: significantly worse than that of polypeptide JWA-6 | inhibition effect on A375 cells [2]: no inhibition effect | inhibition effect on B16F10 cells [3]: no inhibition effect

6-aminocaproic acid-(R)9—FPGSDRF ([Ahx]RRRRRRRRRFPG[pS]DRF) [CPP-JWA-6]
PARP-1 spliceosome (A375 cells [4]; [8]): significantly increased | caspase-3 spliceosome (A375 cells [4]; [8]): significantly increased | changes in the expression of PARP-1 (A375 cells [4]; [9]): will not cause any changes | PARP-1 spliceosome (SGC7901 cells; [8]): significantly increased | changes in the expression of PARP-1 (SGC7901 cells; [9]): will not cause any changes

6-aminocaproic acid-FFPGSDRFA [JWA-7] ([Ahx]FFPGSDRFA)
tumor inhibition effect [1, 10]: no tumor inhibition effect

6-aminoacetic acid-EEMQR [non-pep, reference compound]
tumor inhibition effect ([1]; Example 3, 10 mg/kg intratumoral, alternate days, 5 times): no tumor inhibition effect

6-aminocaproic acid-GSD [JWA-4]
tumor inhibition effect [1, 7]: significantly worse than that of polypeptide JWA-6

6-aminocaproic acid-FPGSDRF-GGGG-RGD (Ac-[Ahx]FPG[pS]DRFGGGGRGD-NH2; SMILES CC(=O)NCCCCCC(=O)N[C@@H](Cc1ccccc1)C(=O)N1CCC[C@H]1C(=O)NCC(=O)N[C@@H](COP(=O)(O)O)C(=O)N[C@@H](CC(=O)O)C(=O)N[C@@H](CCCNC(=N)N)C(=O)N[C@@H](Cc1ccccc1)C(=O)NCC(=O)NCC(=O)NCC(=O)NCC(=O)N[C@@H](CCCNC(=N)N)C(=O)NCC(=O)N[C@@H](CC(=O)O)C(N)=O) [JWA-6+RGD]
tumor inhibition effect ([5]; 10 mg/kg intraperitoneal): a certain degree of tumor inhibition effect | tumor inhibition effect ([5]; 50 mg/kg intraperitoneal): better tumor inhibition effect

6-aminocaproic acid-FFPGSDRFA [JWA-1] ([Ahx]FFPG[pS]DRFA)
inhibition effect on subcutaneous tumor growth in nude mice ([1]; Example 2, 10 mg/kg intratumoral, alternate days, 5 times, in comparison with PBS control group): more significant | tumor weight to body weight ratio ([1]; Example 2, 10 mg/kg intratumoral, alternate days, 5 times, in comparison with PBS control group, P<0.05): smaller | tumor inhibition effect [1, 10]: significant tumor inhibition effect | dose-effect relation of tumor inhibition ([1]; Example 3, 5, 10 and 15 mg/kg intratumoral): no trend of enhanced effect was detected along with dose increase | inhibition effect on A375 cells [2]: no inhibition effect | inhibition effect on B16F10 cells [3]: no inhibition effect | cytoactivity of A375 cells, combined use with ATO (A375 cells [6]): no synergistic effect
